Like-named read-outs stand apart in the source and are kept apart here. Values belong to the compound of their own block, whether it stands above or below them.
Legend:
[1] = Metabolism (pharmacokinetic) test in rats, oral gavage
[2] = Subacute toxicity test in rats (14 days oral, 14 days recovery); format: in vivo, Sprague-Dawley (SD) rats
Protocol: Male Sprague-Dawley (SD) rats (180-220 g) were purchased from Liaoning Changsheng Biotechnology Co., Ltd. (Liaoning, China). All animals were kept in a temperature-controlled room (22±2° C.) with a relative humidity of 55±15% and a 12/12-h light/dark period (the light was turned off at 8:00 pm), with 3 animals in each cage. Animals were adapted to the environment for 1 week after arrival, and allowed to free access to indicated feed and sterilized water, and the padding in the animal cage was changed twice a week.
The compound of the present invention was prepared in 10% HS15.
Multiple doses (30 mpk, 100 mpk and 300 mpk) of the compound of the present invention were orally administered to rats. The compound was administered once a day for consecutive 14 days. The rats were weighed twice a week. […] Compound 5 was given by oral gavage for consecutive 14 days and then recovered for 2 weeks.

[3] = target: human GHSR (Homo sapiens (Human), UniProt Q92847); experiment: Human GHSR agonist activity, FLIPR calcium fluorescence in human GHSR/CHO stable cell line; format: cell-based
Protocol: This method was used to determine the agonism effect of the compound of the invention on the activity of human GHSR protein expressed in human GHSR/CHO stable cell line.
Preparation of buffer: HBSS (1X):HEPES (1M)=49:1, containing 0.5% BSA.
Cells of human GHSR/CHO stable cell line were inoculated into a 384-well plate, and incubated overnight. Then, the cell plate was removed, and the medium was discarded. 20 uL buffer as slowly added to each well, and then 20 uL 2X Fluo-4 Direct™ No-wash Loading Buffer was added to each well. The cell plate was incubated in an incubator at 37° C. and 5% CO2 for 50 min, and then removed and allowed to stand at room temperature for 10 min. 30 uL buffer was added to each well in the compound plate; and a buffer plate was additionally prepared and 30 uL buffer was added to each well. Test for agonism of compound: An FLIPR instrument and running software were used. 10 uL buffer was transferred to the cell plate and the value of fluorescence signal was read. 10 uL compound was transferred to the cell plate and the value of fluorescence signal was read. An FLIPR program was used to calculate the difference between the maximum value and the minimum value from the 91st signal point to the 230th signal point. The EC50 value of the compound can be calculated by software from fluorescence values corresponding to various concentrations.

[4] = test system: Caco-2 cells; experiment: Caco-2 cell transport assay (bidirectional); details: Table 3-1, Caco-2, 2.00 μM
[5] = test system: growth hormone (GH); experiment: In-vivo pharmacodynamic test in rats: plasma GH level by ELISA after oral administration; set-up: species or system Sprague-Dawley (SD) rats; details: for GH concentration in rats: male SD rats, oral, 4 mpk in 10% HS15
[6] = in vitro; details: human; for Papp B→A at 2 h, 2 μM: Caco-2, pH 7.4, Mean Papp B to A
[7] = test system: Caco-2 cells; details: human, Caco-2, 2 h, 2 μM, pH 7.4
[8] = Caco-2 cell transport assay (bidirectional); details: human, Caco-2, 2.00 μM; for efflux ratio at 2 h, 2 μM: Caco-2, pH 7.4, Efflux Ratio; for Papp A→B at 2 h, 2 μM: Caco-2, pH 7.4, Mean Papp A to B; for Papp A→B at 2 h, 2 μM / Papp B→A at 2 h, 2 μM: pH 7.40; for Papp B→A at 2 h, 2 μM: Caco-2, pH 7.4, Mean Papp B to A
[9] = rats, single oral gavage, 1 mg/mL, 3 mL/kg, active ingredient ibutamoren measured in whole blood
[10] = oral gavage 30, 100, 300 mpk once a day for 14 days, 2 weeks recovery
[11] = time point 0 min (basic sampling before dosing)

human GHSR, sequence (Q92847 whole entry): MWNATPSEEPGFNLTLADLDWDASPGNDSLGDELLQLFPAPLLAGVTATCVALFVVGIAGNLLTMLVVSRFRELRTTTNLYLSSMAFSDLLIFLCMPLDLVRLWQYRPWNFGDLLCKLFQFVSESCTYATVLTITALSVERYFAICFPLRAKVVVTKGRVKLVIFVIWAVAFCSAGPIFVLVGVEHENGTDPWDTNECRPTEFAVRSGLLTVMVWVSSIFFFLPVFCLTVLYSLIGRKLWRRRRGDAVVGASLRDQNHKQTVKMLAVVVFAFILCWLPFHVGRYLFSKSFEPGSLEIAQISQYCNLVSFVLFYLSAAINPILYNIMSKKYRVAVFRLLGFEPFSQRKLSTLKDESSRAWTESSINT

SMILES: CC(OC(=O)NC(C)(C)C(=O)N[C@H](COCc1ccccc1)C(=O)N1CCC2(CC1)CN(S(C)(=O)=O)c1ccccc12)OC(=O)C(C)C (stereo partly drawn) [Compound 5, (4R)-7,7-dimethyl-4-(1-(methylsulfonyl)spiro[indol-3,4′-piperidin]-1′-carbonyl)-6,9-dioxo-1-phenyl-2,10-dioxa-5,8-diazadodecan-11-yl Isobutyrate]
Cmax and AUC compared with positive control ibutamoren (in words) ([1]; rats, oral gavage): obviously superior
AUCINF-obs [1, 9]: 23.31 ± 10.81 ng·h/mL
AUClast [1, 9]: 21.61 ± 9.52 ng·h/mL
Cmax [1, 9]: 18.50 ± 13.60 ng/mL
T1/2 [1, 9]: 2.43 ± 0.13 h
Tmax [1, 9]: 0.44 ± 0.49 h
Subacute toxicity overall finding ([2]; dosage 80 times): no obvious abnormality
Anatomic findings [2, 10]: no anatomic abnormality
Food intake and daily behavior [2, 10]: no significant abnormality
Weight change ([2]; oral gavage 30, 100, 300 mpk once a day for 14 days, 2 weeks recovery (FIG. 1)): no significant difference
EC50 ([3]; human GHSR/CHO stable cell line, Fluo-4 FLIPR): 14.6 nM
Efflux Ratio [4]: 170
Mean Papp A to B ([4]; 2 hrs, pH 7.40): 0.0518 10^−6 cm/s
Mean Papp B to A ([4]; 2 hrs, pH 7.40): 8.80 10^−6 cm/s
GH level in the circulation of rats (in words) ([5]; 15 minutes after administration, male rats): significantly increased
GH concentration in rats [5, 11]: 12.23 ± 10.44 ng/mL
GH concentration in rats ([5]; time point 15 min): 51.12 ± 33.98 ng/mL
GH concentration in rats ([5]; time point 30 min): 19.07 ± 7.17 ng/mL
GH concentration in rats ([5]; time point 60 min): 11.76 ± 4.14 ng/mL

efflux ratio at 2 h, 2 μM ([6]; Caco-2, pH 7.4, Efflux Ratio): 189
Papp A→B at 2 h, 2 μM ([6]; Caco-2, pH 7.4, Mean Papp A to B): 0.198 ×10⁻⁶ cm/s
Papp B→A at 2 h, 2 μM [6]: 37.3 ×10⁻⁶ cm/s
SMILES: CC(=O)/C=C(/C)NC(C)(C)C(=O)N[C@H](COCc1ccccc1)C(=O)N1CCC2(CC1)CN(S(C)(=O)=O)c1ccccc12 [Compound 19, (R,Z)-N-(3-(benzoxy)-1-(1-(methylsulfonyl)spiro[indol-3,4′-piperidin]-1′-yl)-1-oxopropan-2-yl)-2-methyl-2-((4-oxopen-2-en-2-yl)amino)propionamide]

AUC(0-inf) ([1]; rat, whole blood, po, 3 mg/kg): 14.3 ± 11 ng·h/mL
AUC(0-t) ([1]; rat, whole blood, po, 3 mg/kg): 6.97 ± 3.27 ng·h/mL
Cmax ([1]; rat, whole blood, po, 3 mg/kg): 3.49 ± 2.81 ng/mL
Tmax ([1]; rat, whole blood, po, 3 mg/kg): 1.06 ± 1.68 h
half-life ([1]; rat, whole blood, po, 3 mg/kg): 577 ± 724 min
Mean Papp B to A [7]: 24.1 10^−6 cm/s
Papp B→A at 2 h, 2 μM [6]: 19.5 ×10⁻⁶ cm/s
SMILES: CC(C)(N)C(=O)N[C@H](COCc1ccccc1)C(=O)N1CCC2(CC1)CN(S(C)(=O)=O)c1ccccc12 [Ibutamoren, reference compound]
GH concentration in rats [5, 11]: 12.22 ± 9.90 ng/mL

efflux ratio at 2 h, 2 μM ([8]; Table 3-1): 523
efflux ratio at 2 h, 2 μM ([8]; Table 3-2): 300
Papp A→B at 2 h, 2 μM ([8]; Table 3-1): 0.0229 ×10⁻⁶ cm/s
Papp A→B at 2 h, 2 μM ([8]; Table 3-2): 0.0476 ×10⁻⁶ cm/s
Papp B→A at 2 h, 2 μM ([8]; Table 3-1): 12 ×10⁻⁶ cm/s
Papp B→A at 2 h, 2 μM ([8]; Table 3-2): 14.3 ×10⁻⁶ cm/s
SMILES: C[C@H]1O[C@@H](O[C@H]2[C@@H](O)C[C@H](O[C@H]3[C@@H](O)C[C@H](O[C@H]4CC[C@@]5(C)[C@H](CC[C@@H]6[C@@H]5C[C@@H](O)[C@]5(C)[C@@H](C7=CC(=O)OC7)CC[C@]65O)C4)O[C@@H]3C)O[C@@H]2C)C[C@H](O)[C@@H]1O [Digoxin]

SMILES: CCOP(=O)(OCC)OCOC(=O)NC(C)(C)C(=O)N[C@H](COCc1ccccc1)C(=O)N1CCC2(CC1)CN(S(C)(=O)=O)c1ccccc12 [Compound 10, ((Diethoxyphosphoryl)oxy)methyl (R)-(1-((3-(benzoxy)-1-(1-(methylsulfonyl)spiro[indol-3,4′-piperidin]-1′-yl)-1-oxopropan-2-yl)amino)-2-methyl-1-oxopropan-2-yl)carbamate]
EC50 [3]: 152 nM

SMILES: CC(=O)OC(C)OC(=O)NC(C)(C)C(=O)N[C@H](COCc1ccccc1)C(=O)N1CCC2(CC1)CN(S(C)(=O)=O)c1ccccc12 (stereo partly drawn) [Compound 14, (4R)-7,7-dimethyl-4-(1-(methylsulfonyl)spiro[indol-3,4′-piperidin]-1′-carbonyl)-6,9-dioxo-1-phenyl-2,10-dioxa-5,8-diazadodecan-11-yl Acetate]
EC50 [3]: 47.2 nM
Effect on GH level compared with ibutamoren (in words) ([5]; rat, in vivo): significantly better than that of ibutamoren
GH level in the circulation of rats (in words) ([5]; rat, in vivo): significantly increased

SMILES: CCC(C)C(=O)OC(C)OC(=O)NC(C)(C)C(=O)N[C@H](COCc1ccccc1)C(=O)N1CCC2(CC1)CN(S(C)(=O)=O)c1ccccc12 (stereo partly drawn) [Compound 12, (4R)-7,7-dimethyl-4-(1-(methylsulfonyl)spiro[indol-3,4′-piperidin]-1′-carbonyl)-6,9-dioxo-1-phenyl-2,10-dioxa-5,8-diazadodecan-11-yl 2-methylbutyrate]
EC50 [3]: 35.9 nM

SMILES: CC(OC(=O)NC(C)(C)C(=O)N[C@H](COCc1ccccc1)C(=O)N1CCC2(CC1)CN(S(C)(=O)=O)c1ccccc12)OC(=O)C(C)(C)C (stereo partly drawn) [Compound 20, (4R)-7,7-dimethyl-4-(1-(methylsulfonyl)spiro[indolin-3,4′-piperidin]-1′-carbonyl)-6,9-dioxo-1-phenyl-2,10-dioxa-5,8-diazadodecan-11-yl Pivalate]
EC50 [3]: 37.7 nM
